In assay [1] the test system is HLA-A*01:01, HLA-A*02:01, HLA-A*03:01, HLA-A*24:02, HLA-B*07:02, HLA-B*08:01 and HLA-B*44:02. Put plainly: HLA alleles the peptides bind to (Table 7). The format is binding, human. To be noted: allotype from the group HLA-A*01:01, HLA-A*02:01, HLA-A*03:01, HLA-A*24:02, HLA-B*07:02, HLA-B*08:01, HLA-B*44:02. The source says: However, due to similarities in binding pattern such as the relevant anchoring positions some peptides bind to more than one allele, such an overlap is most likely, but not limited to, HLA-A*01 binding peptides also binding to HLA-B*15, HLA-A*03 binding peptides also binding to HLA-A*11, HLA-B*07 binding peptides also binding to HLA-B*35 and HLA-B*51.

The target in another assay is HLA-A*24:02 (Homo sapiens, UniProt P04439, D101N/D140Y/D185E/E176V/E190D/F33S/G103R/G107R/I119L/I121M/I306V/K335N/L105A/L180Q/L300P/N151K/N90K/Q86E/Q94H/R106L/R138H/R89G/T104I/T345S/V100E/W191G/Y123F). Briefly: MHC binding assay, UV-ligand exchange ELISA. To be noted: peptide exchange yield, binding to HLA-A*24:02.

“180 (QYLTYYPSF; listed as Homo sapiens) [compound 180]”: the “Binders (HLA alleles the peptides according to the invention bind to)” value (shortened to “Binders”) in assay [1] is listed as “HLA-A*24:02”. For the same substance, the Peptide exchange result with HLA-A*24:02 was “++++ (75% = ++++)”.
In the same order, the values of “163 (LWALAIPSL; listed as Homo sapiens) [compound 163]” are “HLA-A*24:02” and “+++ (50% = +++)”.
In the same order, the values of “43 (VFIPSVINL; listed as Homo sapiens) [compound 43]” are “HLA-A*24:02” and “++++ (75% = ++++)”.
For “87 (LHLNPGLSF; listed as Homo sapiens) [compound 87]”, in that order: “HLA-A*24:02” and “++ (20% = ++)”.
As to “165 (FYNPRPPLI; listed as Homo sapiens) [compound 165]”, the “Binders” value in assay [1] is “HLA-A*24:02”. The Peptide exchange entry in the assay with HLA-A*24:02 is given as “++++ (75% = ++++)”.
In the same order, the values of “158 (FQLSGPVTF; listed as Homo sapiens) [compound 158]” are “HLA-A*24:02” and “++ (20% = ++)”.
For “189 (IWRALGSLF; listed as Homo sapiens) [compound 189]”, in that order: “HLA-A*24:02” and “++++ (75% = ++++)”.
For “16 (NFHTLAQQLLF; listed as Homo sapiens) [compound 16]”, in that order: “HLA-A*24:02” and “++++ (75% = ++++)”.
“186 (SQIKSPVVF; listed as Homo sapiens) [compound 186]”: the “Binders” value in assay [1] is reported as “HLA-A*24:02”. The Peptide exchange entry with HLA-A*24:02 is reported as “+ (10% = +)”.
In the same order, the values of “132 (LYLETRSEF; listed as Homo sapiens) [compound 132]” are “HLA-A*24:02” and “++++ (75% = ++++)”.
In the same order, the values of “62 (SFSLLLPYL; listed as Homo sapiens) [compound 62]” are “HLA-A*24:02” and “+++ (50% = +++)”.
Turning to “13 (LYDTVTHTF; listed as Homo sapiens) [compound 13]”, the “Binders” value in assay [1] is “HLA-A*24:02”. For the same substance, in the assay with HLA-A*24:02, the Peptide exchange entry is “++++ (75% = ++++)”.
For “164 (SHSSPTVSF; listed as Homo sapiens) [compound 164]”, in that order: “HLA-A*24:02” and “++ (20% = ++)”.
For “76 (VQSGVPSRF; listed as Homo sapiens) [compound 76]”, in that order: “HLA-A*24:02” and “++ (20% = ++)”.
In the same order, the values of “173 (IFTGRNAYF; listed as Homo sapiens) [compound 173]” are “HLA-A*24:02” and “++++ (75% = ++++)”.
Turning to “40 (LYQTTIELF; listed as Homo sapiens) [compound 40]”, the “Binders” value in assay [1] is on record as “HLA-A*24:02”. Besides, in the assay with HLA-A*24:02, the Peptide exchange entry is on record as “++++ (75% = ++++)”.
For “201 (VWILQKVNLAF; listed as Homo sapiens) [compound 201]”, the “Binders” value in assay [1] was “HLA-A*24:02”. Also, the Peptide exchange result in the assay with HLA-A*24:02 is listed as “+++ (50% = +++)”.
“31 (VFLLLPYPRF; listed as Homo sapiens) [compound 31]”: the “Binders” value in assay [1] is reported as “HLA-A*24:02”. For the same substance, the Peptide exchange entry with HLA-A*24:02 is on record as “++++ (75% = ++++)”.
For “183 (VFVISGSHLF; listed as Homo sapiens) [compound 183]”, in that order: “HLA-A*24:02” and “++++ (75% = ++++)”.

Values taken from patent US11957716B2 (Immatics Biotechnologies GmbH, priority 2021, dated 2024).
